Numbered stars: 1 amine (or outer) side, 2 acyl side, 3 side chain; on linkers, the order of the positions; unused ones are H or OH. Bridge positions count the residues as written; N and C are the ends. Square brackets hold non-standard residues; d marks the D form. Peptide text beside a SMILES is read from it. dAbu(3S-yl) = C[C@@H]([C@@H](N[*:1])C(=O)[*:2])[*:3]; pGlu = O=C1CC[C@@H](C(=O)O)N1
How the values were obtained:
[1] = Hydrophobicity and solubility of the peptide for intranasal formulation; assay type: physicochemical; conditions: in 10% (2-hydroxypropyl)-ß-cyclodextrin (HBC)
Method: (§1) For intranasal delivery, 1 mg of M89b was first dissolved in 566 µl 2,2,2-trifluorethanol, 566 µl 10% (2-hydroxypropyl)-ß-cyclodextrin (HBC), and 1 µl acetic acid and incubated at 60 °C for 20 min. Another 566 µl of 10% HBC were added. The peptide was then dried in a speed-vac, and the dried pellet was dissolved in 1132 µl water by vortexing and incubation at 60 °C. M871 and GALP were purchased from GL Biochem. M871 was dissolved in saline containing 10% HBC. GALP was dissolved in saline containing 5% α-cyclodextrin.

GAL3R = target: T1, GAL3R (Homo sapiens, UniProt O60755); assay: SRE luciferase reporter assay, GAL3R-transfected HEK293 Gqi cells; conditions: transiently transfected HEK293 Gqi cells; up to 10 µM, 5 h
T1 sequence (O60755 1-368): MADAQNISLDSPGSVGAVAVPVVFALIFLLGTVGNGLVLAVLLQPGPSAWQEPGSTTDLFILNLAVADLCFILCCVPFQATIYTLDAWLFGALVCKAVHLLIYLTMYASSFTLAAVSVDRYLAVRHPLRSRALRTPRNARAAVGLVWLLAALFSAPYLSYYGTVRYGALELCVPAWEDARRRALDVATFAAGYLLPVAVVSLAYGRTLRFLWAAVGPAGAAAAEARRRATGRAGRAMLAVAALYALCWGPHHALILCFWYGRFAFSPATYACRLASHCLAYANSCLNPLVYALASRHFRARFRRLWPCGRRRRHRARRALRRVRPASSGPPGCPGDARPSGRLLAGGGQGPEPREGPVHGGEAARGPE

GAL2R = target: T2, GAL2R (Homo sapiens, UniProt O43603); assay: Fluo-4 Direct calcium assay (Ca efflux) in HEK293 cells overexpressing GAL2R; assay type: cell-based; conditions: Table 3; HEK293 cells stably overexpressing GAL2R; Fluo-4, from 10 µM; (average) ratio, (n) in cell = number of assays; NA = ratio above 1000
T2 sequence (O43603 1-387): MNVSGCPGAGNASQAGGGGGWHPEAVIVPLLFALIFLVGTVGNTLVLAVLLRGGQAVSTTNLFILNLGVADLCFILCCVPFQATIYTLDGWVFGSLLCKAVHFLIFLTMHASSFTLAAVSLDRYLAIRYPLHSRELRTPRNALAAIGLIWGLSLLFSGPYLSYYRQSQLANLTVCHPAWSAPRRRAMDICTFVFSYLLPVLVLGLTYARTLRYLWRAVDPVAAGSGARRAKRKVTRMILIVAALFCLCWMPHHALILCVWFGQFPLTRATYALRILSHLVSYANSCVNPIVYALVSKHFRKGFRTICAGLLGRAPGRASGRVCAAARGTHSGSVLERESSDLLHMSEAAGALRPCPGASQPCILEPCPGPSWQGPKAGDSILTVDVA
Method: Calcium efflux was measured by using a Fluo-4 Direct Calcium Assay purchased from Thermo Fisher Scientific. HEK293 cells with stable overexpression of GAL2R (HEKR2) (kindly provided by Harald Dargatz, Molecular, Cellular and Pharmacobiology Section, Institute of Pharmaceutical Biology, University of Bonn, 53,115 Bonn, Germany) were used for analysis of the lanthipeptides. HEKR2 cells were seeded in a 96-well plate and grown overnight in DMEM supplemented with 10% FBS, 1% penicillin–streptomycin, 100 µg/ml Normocin, and 500 µg/ml G418 at 37 °C, 5% CO2 in a humidified incubator.
The next day, when the cells were nearly confluent, an equal amount of 2 × Fluo-4 Direct™ calcium reagent loading solution, containing 5 mM probenecid, was added to the wells, and the plate was incubated for 1 h at 37 °C. A serial 3 × dilution of the agonist compound in water was made, and 10 µl of the serial dilutions was applied to the cells in duplicate. The starting concentration of agonist in the assay was 10 µM. After 1–2 h of incubation at room temperature, the fluorescence was measured with excitation at 485/20 nm and emission at 528/20 nm with a Synergy HT Biotek reader.

[2] = test system: non-fasted male Wistar rats; assay: Food intake and body weight after intranasal application of peptides; assay type: in vivo, rat
Method: as §1
In vivo experiments involving intranasal treatment of rats and measurement of feeding behavior were performed at the Institute for Translational Medicine, University of Pécs, Pécs, Hungary. Experiments were approved by the National Ethical Council for Animal Research (permit number, BA 02/2000–11/2018). They were also in accord with the directives of the European Communities Council on the protection of animals used for scientific purposes (86/609/EEC, Directive 2010/63/EU of the European Parliament and of the Council).
Spontaneous food intake was measured in non-fasted male Wistar rats (3 months old) for 24 h following intranasal application of peptide solutions by an automated FeedScale System (Columbus, OH). Each group of animals (6–9 rats/group) was habituated to the individual chambers of the FeedScale System until daily food intake and changes in the body weight of the animals had normalized. This habituation, which lasted for a minimum of 2 weeks, allowed adaptation to the environment, to the powdered chow and to the feeder. This powdered form of chow prevented food hoarding. A special digital scale under the cages provided precise automated measurement and continuous recording of the amount of consumed food. During the measurement of the cumulative 24 h food intake, data were collected every 30 min.
Intranasal applications were performed at 06:00 PM at the onset of the active nighttime period of rats. First, the body weight of animals was recorded, and then they were intraperitoneally anesthetized with ketamine (52 mg/kg) and xylazine (9 mg/kg). For the intranasal application of peptides, rats were placed on their backs, and 25–30 µl of peptide solution was injected gently per nostril (total volume of 50–60 μl per rat depending on the administered peptides) using a 10-μl pipette. The following solutions were applied: M89b (25 nmol in 60 µl saline containing 10% HBC); GALP (17.5 nmol in 50 µl saline containing 5% α-cyclodextrin); M871 (219 nmol in 60 µl 10% HBC); and M89b + M871 (25 nmol M89b + 219 nmol M871 in 60 µl 10% HBC). […] At 24 h post-treatment, the body weight of the animals was measured.
Statistical analysis was performed with SPSS 11.0. […] Body weight data were analyzed by applying a one-way ANOVA with Tukey’s post hoc test. […]

Compound: CC(C)C[C@H](NC(=O)[C@H](CC(C)C)NC(=O)[C@H](Cc1ccc(O)cc1)NC(=O)CNC(=O)[C@H](C)NC(=O)[C@H](C)NC(=O)[C@H](CC(N)=O)NC(=O)[C@H](CC(C)C)NC(=O)[C@H](CC(N)=O)NC(=O)[C@H](Cc1c[nH]c2ccccc12)NC(=O)[C@@H]1CCC(=O)N1)C(=O)N[C@@H](C)C(=O)N[C@H]1C(=O)N[C@@H](Cc2c[nH]cn2)C(=O)N[C@@H](C)C(=O)N[C@H](C(=O)NCC(=O)O)CS[C@H]1C [Variant M89b, G1pE-T3N-S6A-G12A-methyllanthionine[13–16]-galanin-(1–17)] ([pGlu]WNLNAAGYLLA[dAbu(3S-yl)]HACG-OH; thioether 13-16; C-terminus assumed)
- Solubility [1]: improved solubility
- Stimulation of GAL3R, luciferase reporter (GAL3R): inability to stimulate
- EC50 ratios to Gal-(1-15), GAL2R Ca-efflux (GAL2R): 1.4 (3)
- Loss of initial body weight at 24 h post-treatment ([2]; intranasal 25 nmol in 10% HBC, p = 0.009 vs. vehicle): 2.6%
- Reduction of 24 h food intake compared to vehicle ([2]; intranasal 25 nmol in 60 µl saline with 10% HBC, p = 0.006 vs vehicle): 23%

Reference: paper PMC8804135 (Neurotherapeutics, 2021)
